Measured values taken from publication PMC9917443 (eLife, 2023).
“Also recorded” adds a separate entry of the source.

Key:
[1] = biological target: T1, GB1a/2 receptors (Homo sapiens, UniProt O75899+Q9UBS5); experiment: PKA luminescence assay (R-RLuc-N / C-RLuc-C) of Gαi signaling in HEK293T cells
[2] = test system: GB1a/2 receptors in HEK293T cells; experiment: APP17-TMR binding / displacement at GB1a/2 receptors in HEK293T cells; details: 10 μM peptide
Protocol: Transfected HEK293T cells expressing Flag-GB1a and Flag-GB2 were seeded into 96-well microplates (Greiner Bio-One, Kremsmünster, Austria) at 50,000 cells/well. After 18 hr, peptides were mixed with conditioned medium at the following final concentrations: APP17-TMR (1 µM) with either APP17 (10 µM), sc-APP17 (10 µM), or PBS (vehicle); sc-APP17-TMR (1 µM) in PBS was used as a negative control. After removal of medium, peptide mixes were added to the wells and cells incubated in the dark for 1 hr at room temperature. After removal of the peptides, PBS with MgCl2 and CaCl2 (Sigma-Aldrich) was added to the wells. TMR fluorescence was monitored with a Spark microplate reader (Tecan Group, Männerdorf, Switzerland) using a monochromator (Excitation 544 nm, […] bandwidth; detection […], 25 nm bandwidth). TMR fluorescence was determined after subtraction of the sc-APP17-TMR fluorescence measured at HEK293T cells transfected with pCI plasmid.

[3] = test system: mEPSCs of cultured hippocampal neurons; experiment: mEPSC frequency in cultured hippocampal neurons; format: cell-based, mouse; details: APP17 250 nM, 0.5 μM TTX, DIV13–16
Protocol: (§1) GB1a/2 receptors are abundant at axon terminals where they inhibit neurotransmitter release ([Vigot et al., 2006]). […] A GBR antagonist blocked the effect of APP17 on the mEPSC frequency, supporting a GBR-dependent mechanism. […] We additionally studied whether APP17 at 250 nM influences eEPSC amplitudes in acute hippocampal slices. Postsynaptic GBR-activated K^+ currents were blocked with a Cs^+-based intracellular solution, which allowed to specifically monitor the activity of presynaptic GBRs.
(§2) Neuronal cultures and HEK293T cells were prepared as described ([Dinamarca et al., 2019]). Coverslips with hippocampal neurons (DIV 12–15) or HEK293T cells were transferred to a chamber containing a low-K^+ bath solution (in mM): 145 NaCl, 4 KCl, 5 HEPES, 5.5 D-glucose, 1 MgCl2, and 1.8 CaCl2 (pH 7.4 adjusted with NaOH). Recordings were performed at room temperature using borosilicate pipettes of 3–5 MΩ resistance tips, filled with K-gluconate-based pipette solution (in mM): 150 K-gluconate, 1.1 EGTA, 10 HEPES, 10 Tris-phosphocreatine, 0.3 NaGTP, and 4 MgATP (pH 7.2 adjusted with KOH). […] Evoked EPSCs were recorded at –60 mV with a Cs^+-based intracellular solution. […] We recorded mEPSCs in primary neuronal cultures established from embryonic (E15–17) murine hippocampus at DIV13–16 in the presence of 0.5 μM TTX at room temperature ([Dinamarca et al., 2019]). […]

[4] = biological target: T1, GB1a/2 receptors; experiment: inter-subunit FRET conformational sensor (HA-GB1a-ACP / Flag-SNAP-GB2) in HEK293T cells; details: for Fig. 2c value, 10mM GABA / Fig. 2c value, Basal: + Vehicle Basal given as 100; for Fig. 2c value, Basal: Basal (no GABA)
[5] = test system: eEPSCs of CA1 pyramidal neurons; experiment: eEPSC amplitudes in CA1 pyramidal neurons of acute hippocampal slices; parameters: species or system mouse; details: APP17 250 nM or baclofen 20 µM, Cs^+-based intracellular solution
Protocol: as §1, §2

[6] = biological target: T1, GB1a/2 receptors; experiment: Ca^2+ mobilization assay (Calcium 6) in HEK293T cells expressing GB1a/2; format: cell-based; parameters: Flag (N); expressed in transfected cells; host or cells: HEK293T cells stably expressing chimeric Gαqi; details: 1 or 10 μM
[7] = test system: GB1a/2 receptor-induced Kir3 currents in HEK293T cells; experiment: Kir3 K^+ currents in transfected HEK293T cells (patch-clamp); format: cell-based

T1 sequence (Q9UBS5 15-961 limits assumed): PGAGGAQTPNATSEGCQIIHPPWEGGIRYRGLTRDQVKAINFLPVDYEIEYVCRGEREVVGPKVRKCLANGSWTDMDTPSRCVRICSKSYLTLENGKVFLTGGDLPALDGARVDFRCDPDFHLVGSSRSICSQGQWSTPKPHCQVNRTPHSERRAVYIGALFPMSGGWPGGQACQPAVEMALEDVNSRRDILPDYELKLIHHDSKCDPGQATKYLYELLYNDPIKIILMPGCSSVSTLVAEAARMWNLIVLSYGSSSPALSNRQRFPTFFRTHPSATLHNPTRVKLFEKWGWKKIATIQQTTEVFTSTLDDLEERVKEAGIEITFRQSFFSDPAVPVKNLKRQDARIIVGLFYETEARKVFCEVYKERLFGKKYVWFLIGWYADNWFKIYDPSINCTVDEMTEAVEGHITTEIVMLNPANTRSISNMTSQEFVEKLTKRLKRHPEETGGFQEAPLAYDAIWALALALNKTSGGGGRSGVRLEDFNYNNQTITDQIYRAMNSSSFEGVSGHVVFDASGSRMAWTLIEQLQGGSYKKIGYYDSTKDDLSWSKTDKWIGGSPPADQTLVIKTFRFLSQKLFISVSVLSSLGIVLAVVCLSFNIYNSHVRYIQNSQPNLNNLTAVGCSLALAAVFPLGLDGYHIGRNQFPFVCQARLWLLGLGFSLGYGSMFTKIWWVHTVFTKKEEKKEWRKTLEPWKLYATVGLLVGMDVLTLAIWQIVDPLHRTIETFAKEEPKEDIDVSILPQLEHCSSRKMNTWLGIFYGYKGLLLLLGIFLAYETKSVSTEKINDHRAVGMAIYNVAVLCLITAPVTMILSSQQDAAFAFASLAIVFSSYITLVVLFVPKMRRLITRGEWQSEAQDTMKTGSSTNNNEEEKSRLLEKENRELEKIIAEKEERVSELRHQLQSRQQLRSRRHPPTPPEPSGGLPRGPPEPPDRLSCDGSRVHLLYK
T1 sequence (O75899 42-941 partner): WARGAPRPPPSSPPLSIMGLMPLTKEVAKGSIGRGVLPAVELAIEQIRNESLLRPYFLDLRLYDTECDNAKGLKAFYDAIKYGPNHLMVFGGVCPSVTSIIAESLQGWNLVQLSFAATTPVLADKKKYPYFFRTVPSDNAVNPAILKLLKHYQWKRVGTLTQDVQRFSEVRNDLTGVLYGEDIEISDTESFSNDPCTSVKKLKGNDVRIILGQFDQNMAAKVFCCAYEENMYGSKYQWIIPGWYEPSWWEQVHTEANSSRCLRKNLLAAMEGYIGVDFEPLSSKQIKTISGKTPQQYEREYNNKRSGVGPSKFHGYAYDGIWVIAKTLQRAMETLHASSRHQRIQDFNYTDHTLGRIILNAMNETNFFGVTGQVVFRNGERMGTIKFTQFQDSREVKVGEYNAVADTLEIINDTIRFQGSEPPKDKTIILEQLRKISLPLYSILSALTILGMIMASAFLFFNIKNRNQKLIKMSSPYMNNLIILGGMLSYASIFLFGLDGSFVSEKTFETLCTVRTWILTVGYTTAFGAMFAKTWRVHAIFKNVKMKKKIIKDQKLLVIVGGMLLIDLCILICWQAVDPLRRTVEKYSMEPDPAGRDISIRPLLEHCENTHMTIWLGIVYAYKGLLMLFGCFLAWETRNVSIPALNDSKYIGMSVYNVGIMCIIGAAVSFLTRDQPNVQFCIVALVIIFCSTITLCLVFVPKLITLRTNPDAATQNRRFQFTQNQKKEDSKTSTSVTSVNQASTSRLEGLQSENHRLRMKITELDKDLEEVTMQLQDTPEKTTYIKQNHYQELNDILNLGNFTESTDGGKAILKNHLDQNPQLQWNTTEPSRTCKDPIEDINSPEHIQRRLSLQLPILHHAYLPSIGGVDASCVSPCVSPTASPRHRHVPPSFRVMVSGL

Ac-DDSDVWWGGADTDYADG-NH2 [APP17]
GABA-mediated PKA inactivation in presence of peptide (in words) ([1]; 10 μM peptide): GABA-mediated PKA inactivation was comparable | effect of peptide alone on luminescence/receptor activity (in words) ([1]; 10 μM peptide): no agonistic, inverse agonistic, or antagonistic properties | receptor activity with APP695 in cis (in words) ([1]; peptide, APP695 in cis): did not significantly alter GB1/2 receptor activity | displacement of 1 μM APP17-TMR from GB1a/2 receptors (in words) [2]: displaced 1 μM APP17-TMR from GB1a/2 receptors | mEPSC frequency (in words) [3]: unable to detect a significant effect of APP17 on the mEPSC frequency | Fig. 2c value, 10mM GABA ([4]; 1 µM peptide with 10mM GABA, replicate 2): 28.98 | Fig. 2c value, 10mM GABA ([4]; 1 µM peptide with 10mM GABA, replicate 3): 58.07 | Fig. 2c value, 10mM GABA ([4]; 1 µM peptide with 10mM GABA, replicate 4): 49.76 | Fig. 2c value, 10mM GABA ([4]; 1 µM peptide with 10mM GABA, replicate 5): 60.83 | Fig. 2c value, 10mM GABA ([4]; 1 µM peptide with 10mM GABA, replicate 6): 55.36 | Fig. 2c value, Basal ([4]; 1 µM peptide, replicate 1): 103.3 | Fig. 2c value, Basal ([4]; 1 µM peptide, replicate 2): 101 | Fig. 2c value, Basal ([4]; 1 µM peptide, replicate 3): 107.6 | Fig. 2c value, Basal ([4]; 1 µM peptide, replicate 4): 115.2 | Fig. 2c value, Basal ([4]; 1 µM peptide, replicate 5): 132.7 | Fig. 2c value, Basal ([4]; 1 µM peptide, replicate 6): 111.9 | Fig. 2c value, 10mM GABA ([4]; 10 µM peptide with 10mM GABA, replicate 1): 63.47 | Fig. 2c value, 10mM GABA ([4]; 10 µM peptide with 10mM GABA, replicate 2): 34.4 | Fig. 2c value, 10mM GABA ([4]; 10 µM peptide with 10mM GABA, replicate 3): 49.12 | Fig. 2c value, 10mM GABA ([4]; 10 µM peptide with 10mM GABA, replicate 4): 59.27 | Fig. 2c value, 10mM GABA ([4]; 10 µM peptide with 10mM GABA, replicate 5): 68.45 | Fig. 2c value, 10mM GABA ([4]; 10 µM peptide with 10mM GABA, replicate 6): 59.22 | Fig. 2c value, Basal ([4]; 10 µM peptide, replicate 1): 120 | Fig. 2c value, Basal ([4]; 10 µM peptide, replicate 2): 119.3 | Fig. 2c value, Basal ([4]; 10 µM peptide, replicate 3): 127.7 | Fig. 2c value, Basal ([4]; 10 µM peptide, replicate 4): 117.6 | Fig. 2c value, Basal ([4]; 10 µM peptide, replicate 5): 144.4 | Fig. 2c value, Basal ([4]; 10 µM peptide, replicate 6): 124.3 | FRET in the presence of 10 mM GABA (in words) ([4]; 1 or 10 μM peptide + 10 mM GABA): no significant differences in FRET | FRET, basal, peptide alone (in words) ([4]; 1 or 10 μM peptide without GABA): significantly increased instead of decreased FRET; also recorded: significant increase of FRET | effect on GABA potency (in words) ([4]; LogEC50 of GABA dose-response): did not significantly alter GABA potency | eEPSC amplitude (in words) [5]: not APP17 was able to reduce the amplitudes of eEPSCs | intracellular Ca^2+ mobilization (in words) [6]: did not induce significant Ca^2+ mobilization | GABA-induced Kir3 currents in presence of peptide (in words) ([7]; 5 µM GABA): nor did the peptides alter K^+ currents in the presence of 5 µM GABA | Kir3 K^+ currents evoked by compound alone (in words) ([7]; transfected HEK293T cells): did not trigger K^+ currents
